# Test results reported in US20080275136A1, “Use of Glycerol for Improving Cardiac Function” (priority 2005, published 2008).
# Read-outs that look alike come from different tables or passages of the source.
# Legend:
# [1] = system: heart; details: cited from earlier work
# [2] = system: isolated neonatal rat cardiomyocytes; details: cited from earlier work
# [3] = system: perfused rat heart; assay: Simultaneous oxidation of [3H]-palmitate and [14C]-glycerol in perfused rat heart; details: extracellular glycerol concentration increased; palmitate 0.4 mM
# Description: The influence of cardiac energy demand and circulating glycerol concentration on fatty acid metabolism was evaluated in the heart by following the intracellular palmitate fate with [^3H]-palmitate. The experiments were performed using the perfusion conditions described in Example 1, except that a perfusion solution supplemented with palmitate (0.4 mM) was used. To prepare palmitate-enriched solution, 43.5 g of albumin (fraction bovine, Sigma) was dissolved in 350 mL Krebs-Henselheit buffer. Palmitate was then slowly added to this albumin solution and mixed. The albumin-palmitate mixture was dialysed against Krebs-Henselheit solution at +4° C. (three time 12 h dialysis in 10 basal solution volume). For the final preparation of the palmitate-enriched fluid, 93.5 mL of concentrated solution were incorporated in 2 L of Krebs-Henselheit Radioactive solution was prepared in the same conditions with addition of [^3H]-palmitate (1 μCi/mL). The perfusion solution also contained [^14C]-glycerol to follow glycerol oxidation in the same heart. The oxidations of palmitate and glycerol were evaluated simultaneously using as tracers [^3H]-palmitate and [^14C]-GLYCEROL, respectively. At the end of the perfusion, the oxidized substrates were determined by measuring the radioactivity rejected by the heart in the perfusion medium as [^3H]2O and [^14C]O2, respectively.
# [4] = system: perfused rat heart; assay: 14CO2 production from [14C]-glycerol in perfused rat heart (mitochondrial energy production); details: energy demand raised from 350 to 450 beats/min; whatever the circulating glycerol concentration (0.33 or 3.33 mM)
# Description: (§1) The investigations were carried out on a perfused rat heart model (LOPASCHUK and BARR., 1997, aforementioned, SENTEX et al, 2001, aforementioned, FOLCH et al., J Biol Chem, 226, 497-509, 1957). Male Wistar rats (280-330 g) were anaesthetised with sodium pentobarbital (60 mg per kg, i.p.) and heparin was intravenously injected (500 IU/kg). After 1 min, the hearts were excised and placed in a cold (4° C.) perfusion buffer awaiting contractions ceased. The heart was then immediately cannulated through the aorta and perfused according to the Langendorff method at a constant perfusion pressure of 80 cm of water (8 kPa). […]
# (§2) Before use, all solutions were filtered through a 0.8 μm filter (Millipore, Saint Quentin en Yvelines, France) to remove any particulate contaminants. […] The intra-ventricular pressure and the heart rate were recorded together with ECG. Coronary flow was measured by sequentially collecting the effluent. […]
# The cardiac capacity to use glycerol as a metabolic substrate in energy production, according to glycerol availability was evaluated using ^14C-radiolabelled glycerol.
# The direct measurement of mitochondrial energy production was made by quantitatively collecting ^14CO2 produced from the perfused hearts. […] The hyamine […] was collected every 10 minutes and the radioactivity evaluated.
# [5] = system: perfused rat heart; assay: Incorporation of glycerol in glycerolipids (PL and NPL) in perfused rat heart; details: increase in rate
# Description: The experiments were performed using the perfusion conditions described in Example 1. At the end of the perfusion, the heart was washed out from the remaining radiolabelled medium by 10 mL of Krebs-Henseleit solution injected through the canula. The hearts were homogenized in 30 mL chloroform/methanol (2/1, v/v) according to FOLCH (1957, aforementioned). The radioactivity of the homogenate was evaluated. A 0.73% NaCl solution was added to the homogenate to cause phase separation. The radioactivity was determined in samples of the aqueous and organic fractions, and the phospholipids (PL) were separated from non-phosphorous lipids (NPL) on silica cartridges (Supelco, Sigma) and the radioactivity of each class was evaluated. The fate of intracellular glycerol was evaluated in these rat hearts by analysing the radioactivity incorporated into phospholipids (PL) and non-phosphorous lipids (NPL), which in the heart represent mainly the triacylglycerol pool.
# [6] = system: perfused rat heart; assay: Glycerol uptake in perfused rat heart (total radioactivity of the homogenate)
# Description: as §1, with “kPa). The perfusion fluid consisted of a modified Krebs-Henseleit bicarbonate buffer (mM concentrations: NaCl 118, NaHCO3 25, MgSO4 1.2, KH2PO4 1.2, KCl 4.7, glucose 5.5 and CaCl2 2.0).” for “kPa).”
# as §2
# At the end of the perfusion, the heart was washed out from the remaining radiolabelled medium by 10 mL of Krebs-Henseleit solution injected through the canula. […] The radioactivity of the homogenate was evaluated.
# The glycerol uptake was evaluated from the total radioactivity of the homogenate.
# [7] = system: type 2 diabetic patients; details: cited from earlier work
# [8] = as a function of the extracellular glycerol concentration
smiles,measurement,setting,value
"COc1ccc(CN2CCNCC2)c(OC)c1OC [Trimetazidine, reference compound]",cellular glycerol uptake,[1]; associated with increased phospholipid synthesis,significant increase
same,β-oxidation,[1],reduces β-oxidation
same,phospholipid synthesis,[1]; in vitro and in vivo,increasing the phospholipid synthesis
same,glycerol uptake,[2]; Trimetazidine added,increased
same,phospholipid synthesis,[2]; Trimetazidine added,increased their synthesis only at high glycerol concentrations
same,triacylglycerol synthesis,[2]; Trimetazidine added,no significant effect
OCC(O)CO [glycerol],FA β-oxidation ([3H]2O from palmitate),[3],reduced
same,glycerol oxidation ([14C]O2),[3],increased
same,mitochondrial production of 14CO2 from glycerol,[4],significantly increased
same,PL concentration,[2]; [8],increased progressively
same,triacylglycerol concentration,[2]; [8],only increased at higher glycerol concentrations
same,glycerol uptake,[2]; extracellular glycerol concentration from 80 μM to 660 μM,increases
same,synthesis of glycerolipids,[5]; high glycerol concentration (3.33 mM),involved in the synthesis of both membrane phospholipids and storage triacylglycerols
same,synthesis of glycerolipids,[5]; low glycerol concentration (0.33 mM),does not influence
same,glycerol uptake,"[6]; high glycerol concentration (3.33 mM), increased energetic demand 350 to 450 beats/min",significant increase
same,glycerol uptake,"[6]; low glycerol concentration (0.33 mM), increase in rate 350 to 450 beats/min",not significantly modified
CCOC(=O)[C@@]1(CCCCCCOc2ccc(Cl)cc2)CO1 [Etomoxir],cardiac hypertrophy,[1]; chronic treatment,induced cardiac hypertrophy
same,glucose oxidation,[1]; normal and diabetic heart,increase glucose oxidation
same,insulin sensitivity,[7],improve insulin sensitivity
